Marks after values point to notes of the source that are not given here.
Assays:
[1] = test system: rats having hyperuricemia induced by potassium oxonate; assay: Serum uric acid content of rats having hyperuricemia induced by potassium oxonate (tungstic acid method); assay type: in vivo, rat; conditions: allopurinol group 50 mg·kg^−1; p<0.01; day not given
Source text: (§1) 180 SD rats (SPF grade, male, 200±20 (g)) were provided by Laboratory Animals Centre, Guangzhou University of Chinese Medicine (License Number: SCXK(Yue)2013-0020). Reagents: allopurinol tablets (Guangdong P.D. Pharmaceutical Co., Ltd., Production batch No. 20130302); potassium oxonate (Shandong Zhongke Taidou Chemical Co., Ltd., Batch No. 120901); sodium carboxymethyl cellulose (Shanghai Celluloid Factory, Product Standard No. GB2760); uric acid assay kit (NanJing Jiancheng Bioengineering Institute, Production batch No. 20130529).
(§2) Animal grouping and modeling: 165 normal healthy SD male rats were obtained and randomly divided into normal control group (15 rats) and model group (150 rats). […] Those rats having a uric acid content of greater than 110 μmol·L^−1 were determined to be successful models. […] On 10th and 20th day after treatment with the above-described peptide samples, 50 min after the last administration, the rats were anaesthetized with 3% pentobarbitol sodium (i.p., 30 mg·kg^−1), and the blood (0.5 ml) was collected from conjunctiva and the serum uric acid content was determined. On 30th day after treatment with antigout peptides, the rats were anaesthetized with 3% pentobarbitol sodium, and 5 ml of blood was collected from coeliac artery and the content of serum creatinine and urea nitrogen were determined at the same time in addition to the serum uric acid content. […]

[2] = test system: rats having hyperuricemia induced by potassium oxonate; assay: Serum creatinine content of rats having hyperuricemia induced by potassium oxonate (picric acid method); assay type: in vivo, rat; conditions: administration for 30 d, extracts 200 mg·kg^−1, allopurinol 50 mg·kg^−1, intragastric, x ± s
Source text: as §1, §2

Oc1ncnc2[nH]ncc12 [Allopurinol, allopurinol]
Effect on serum uric acid content versus model group (in words) [1]: very significant effect in the reduction of the serum uric acid
Creatinine (μmol/L) [2]: 52.9 ± 10.8^b μmol/L

— patent US10455849B2, “Method for the preparation of a protein peptide, a protein peptide and use thereof” (INFINITUS (CHINA) COMPANY LTD., priority 2015, dated 2019)
